Experimental data: PubChem BioAssay AID1963841 (Molecular Pharmacology Branch, DTP, NCI, 2024)

Test system: 439559-082-T-J2-PDC spheroid viability
Test: Anticancer human tumor 439559-082-T-J2-PDC patient-derived colon adenocarcinoma cell line growth inhibition [POLQ]
Conditions: spheroids with HUVEC and MSC; for IC50: curve of first compound; for viability, T/C: stronger effect = lower value
Summary of the method: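 Patient-derived tumour cells were co-cultured with HUVEC and mesenchymal stem cells as multicellular spheroids at 37 °C. They were treated with POLQ inhibitors (novobiocin, ART-558, RP6685) alone or combined with other agents. Top concentrations were at or near clinical Cmax (otherwise 10 microM; SN-38 at 1 microM), decreasing in half-log steps.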

[1] = second compound 0.0316 µM, first compound 0.0316 µM
[2] = second compound 0.0316 µM, first compound 0.1 µM
[3] = second compound 0.0316 µM, first compound 0.316 µM
[4] = second compound 0.0316 µM, first compound 1 µM
[5] = second compound 0.0316 µM, first compound 3.16 µM
[6] = second compound 0.0316 µM, first compound 10 µM
[7] = second compound 0.1 µM, first compound 0.0316 µM
[8] = second compound 0.1 µM, first compound 0.1 µM
[9] = second compound 0.1 µM, first compound 0.316 µM
[10] = second compound 0.1 µM, first compound 1 µM
[11] = second compound 0.1 µM, first compound 3.16 µM
[12] = second compound 0.1 µM, first compound 10 µM
[13] = second compound 0.316 µM, first compound 0.0316 µM
[14] = second compound 0.316 µM, first compound 0.1 µM
[15] = second compound 0.316 µM, first compound 0.316 µM
[16] = second compound 0.316 µM, first compound 1 µM
[17] = second compound 0.316 µM, first compound 3.16 µM
[18] = second compound 0.316 µM, first compound 10 µM
[19] = second compound 1 µM, first compound 0.0316 µM
[20] = second compound 1 µM, first compound 0.1 µM
[21] = second compound 1 µM, first compound 0.316 µM
[22] = second compound 1 µM, first compound 1 µM
[23] = second compound 1 µM, first compound 3.16 µM
[24] = second compound 1 µM, first compound 10 µM
[25] = second compound 3.16 µM, first compound 0.0316 µM
[26] = second compound 3.16 µM, first compound 0.1 µM
[27] = second compound 3.16 µM, first compound 0.316 µM
[28] = second compound 3.16 µM, first compound 1 µM
[29] = second compound 3.16 µM, first compound 3.16 µM
[30] = second compound 3.16 µM, first compound 10 µM
[31] = second compound 10 µM, first compound 0.0316 µM
[32] = second compound 10 µM, first compound 0.1 µM
[33] = second compound 10 µM, first compound 0.316 µM
[34] = second compound 10 µM, first compound 1 µM
[35] = second compound 10 µM, first compound 3.16 µM
[36] = second compound 10 µM, first compound 10 µM
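Note: spheroids exposed to compounds for seven days before readout.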
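Throughout, for viability, T/C: 100% = DMSO vehicle control viability.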

For `C=CC(=O)N1CCN(c2nc(=O)n(-c3c(C)ccnc3C(C)C)c3nc(-c4c(O)cccc4F)c(F)cc23)C(C)C1` (centres undefined) + COC1C(OC(N)=O)C(O)C(Oc2ccc3c(O)c(NC(=O)c4ccc(O)c(CC=C(C)C)c4)c(=O)oc3c2C)OC1(C)C, the IC50 (second compound 0.0316 µM) was > 10 µM, the IC50 (second compound 0.1 µM) was > 10 µM and the IC50 (second compound 0.316 µM) was > 10 µM. For the same compound, the IC50 (second compound 1 µM) was > 10 µM, the IC50 (second compound 3.16 µM) was > 10 µM and the IC50 (second compound 10 µM) was > 10 µM. For the same compound, the viability, T/C [1] was 95.8%, the viability, T/C [2] was 93.5% and the viability, T/C [3] was 104%. It also gave a viability, T/C [4] of 101%, a viability, T/C [5] of 104% and a viability, T/C [6] of 91.4%. For the same compound, the viability, T/C [7] was 96.7%, the viability, T/C [8] was 105% and the viability, T/C [9] was 98%. It also gave a viability, T/C [10] of 101%, a viability, T/C [11] of 106% and a viability, T/C [12] of 96.9%. It also gave a viability, T/C [13] of 103%, a viability, T/C [14] of 96.3% and a viability, T/C [15] of 99.7%. The viability, T/C [16] was 101%, the viability, T/C [17] was 107% and the viability, T/C [18] was 98.6%. The viability, T/C [19] was 106%, the viability, T/C [20] was 105% and the viability, T/C [21] was 97.6%. For the same compound, the viability, T/C [22] was 101%, the viability, T/C [23] was 109% and the viability, T/C [24] was 98.8%. For the same compound, the viability, T/C [25] was 98.1%, the viability, T/C [26] was 101% and the viability, T/C [27] was 101%. It also gave a viability, T/C [28] of 104%, a viability, T/C [29] of 98.5% and a viability, T/C [30] of 102%. It also gave a viability, T/C [31] of 103%, a viability, T/C [32] of 92.8% and a viability, T/C [33] of 98.8%. The viability, T/C [34] was 109%, the viability, T/C [35] was 106% and the viability, T/C [36] was 98.8%.

For `O=C(c1cc(Cc2n[nH]c(=O)c3ccccc23)ccc1F)N1CCN(C(=O)C2CC2)CC1` + COC1C(OC(N)=O)C(O)C(Oc2ccc3c(O)c(NC(=O)c4ccc(O)c(CC=C(C)C)c4)c(=O)oc3c2C)OC1(C)C, the IC50 (second compound 0.0316 µM) was > 10 µM, the IC50 (second compound 0.1 µM) was > 10 µM and the IC50 (second compound 0.316 µM) was > 10 µM. For the same compound, the IC50 (second compound 1 µM) was > 10 µM, the IC50 (second compound 3.16 µM) was > 10 µM and the IC50 (second compound 10 µM) was > 10 µM. For the same compound, the viability, T/C [1] was 101%, the viability, T/C [2] was 106% and the viability, T/C [3] was 94.4%. For the same compound, the viability, T/C [4] was 100%, the viability, T/C [5] was 106% and the viability, T/C [6] was 97.4%. The viability, T/C [7] was 105%, the viability, T/C [8] was 102% and the viability, T/C [9] was 100%. For the same compound, the viability, T/C [10] was 96.4%, the viability, T/C [11] was 105% and the viability, T/C [12] was 98.1%. It also gave a viability, T/C [13] of 102%, a viability, T/C [14] of 104% and a viability, T/C [15] of 98.9%. For the same compound, the viability, T/C [16] was 92.9%, the viability, T/C [17] was 107% and the viability, T/C [18] was 97.8%. It also gave a viability, T/C [19] of 108%, a viability, T/C [20] of 102% and a viability, T/C [21] of 100%. The viability, T/C [22] was 106%, the viability, T/C [23] was 107% and the viability, T/C [24] was 100%. It also gave a viability, T/C [25] of 107%, a viability, T/C [26] of 109% and a viability, T/C [27] of 94.9%. For the same compound, the viability, T/C [28] was 97%, the viability, T/C [29] was 105% and the viability, T/C [30] was 92.1%. It also gave a viability, T/C [31] of 97.7%, a viability, T/C [32] of 99.3% and a viability, T/C [33] of 102%. It also gave a viability, T/C [34] of 102%, a viability, T/C [35] of 116% and a viability, T/C [36] of 91.4%.
